The record followed here is ChEMBL document CHEMBL1201862, “PubChem BioAssay data set” (2004).

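These data come from cells grown in 96-well plates and exposed to compound for 48 hours at five concentrations. GI50 is the concentration that inhibits growth by half.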 Activity calls are given as the source filed them. No stated cut-off is given here; in the data, active = GI50 up to about 1.1 µM and inactive = higher.

What all share (assay): growth of human tumour cells (NCI), 48 h
Assay [1] has as its system CAKI-1.
In assay [2] the test system is CCRF-CEM.
In assay [3] the test system is HCC 2998.
Assay [4] deals with K562.
In assay [5] the test system is MDA-MB-435.
The test system of assay [6] is MOLT-4.
Assay [7] concerns NCI-H522.
The test system of assay [8] is OVCAR-3.
For assay [9], the system named is OVCAR-5.
For assay [10], the system named is SF-268.
Assay [11] concerns SF-295.
For assay [12], the system named is SK-MEL-28.
In assay [13] the test system is SN12C.
Assay [14] relates to SNB-19.
In assay [15] the test system is SNB-75.
Assay [16] relates to TK-10.
Assay [17] concerns UACC-257.
For assay [18], the system named is UACC-62.
For assay [19], the system named is UO-31.
Assay [20] relates to HOP-92.

Consider `O=C(O)C/C=C/CC(=O)O`, for which the GI50 is > 100 µM (inactive) in assay [1]; > 100 µM (inactive) in assay [2]; > 100 µM (inactive) in assay [3]; 67.1 µM (inactive) in assay [4]; > 100 µM (inactive) in [5]; > 100 µM (inactive) in [6]. Also, the GI50 in [7], in [8], in [9], in [10], in [11] and in [12] was > 100 µM (inactive) each time. The GI50 in [13] was 25.7 µM (inactive); in [14], > 100 µM (inactive); in assay [15] it was > 100 µM (inactive); in assay [16] it was > 100 µM (inactive); in [17] it was > 100 µM (inactive); in assay [18] it was > 100 µM (inactive). Further, the GI50 in [19] was > 100 µM (inactive).

Turning to `CC(=O)Nc1ccc(C2=N/C(=C\c3ccc(Cl)cc3)C(=O)O2)cc1`, the GI50 in assay [1] was > 100 µM (inactive); in assay [2], 26.7 µM (inactive); in [3], 20 µM (inactive); in [20], 33.7 µM (inactive); in assay [4], 19.5 µM (inactive); in assay [6], 20.7 µM (inactive). Further, the GI50 in assay [7] is 25.4 µM (inactive); in assay [8], 27.8 µM (inactive); in assay [9], > 100 µM (inactive); in assay [10], 34.3 µM (inactive); in assay [11], > 100 µM (inactive); in assay [12] it was > 100 µM (inactive). For the same molecule, the GI50 in [13] was 28.2 µM (inactive); in [14] it was 63.7 µM (inactive); in assay [15] it was 40.4 µM (inactive); in assay [16], > 100 µM (inactive); in assay [17], 45.7 µM (inactive); in assay [18], 40.6 µM (inactive). Further, in assay [19], the GI50 was 26.4 µM (inactive).

As for `O=C1c2ccccc2-c2c1c(-c1ccc(O)cc1O)nc1ccc3ccccc3c21`, the GI50 in assay [1], in assay [2], in assay [3], in assay [4], in assay [5] and in assay [6] was > 100 µM (inactive) each time. In addition, the GI50 in assay [9], in assay [10], in assay [11], in assay [12], in [13] and in [14] was > 100 µM (inactive) each time. Further, the GI50 in [15], in assay [17], in assay [18] and in assay [19] was > 100 µM (inactive) each time.

On to `CN(C)c1ncnc2c1Cc1ccccc1C(=O)N2C`, for which the GI50 in assay [1], in [2], in [3], in [20], in [4] and in [6] was > 100 µM (inactive) each time. The GI50 in assay [7], in assay [8], in [9], in assay [10], in [11] and in assay [12] was > 100 µM (inactive) throughout. Further, the GI50 in assay [13], in assay [14], in assay [15], in [16], in assay [17] and in assay [18] was > 100 µM (inactive) each time. Moreover, in assay [19], the GI50 was > 100 µM (inactive).

`Cc1cc2[nH]c3c(C#N)c(-c4ccccc4)c(/N=N/c4cccc(C(F)(F)F)c4)c(=O)n3c2cc1C`: the GI50 in assay [1] is 32 µM (inactive); in assay [2] it was 5.3 µM (inactive); in [3], 59.2 µM (inactive); in [4], 0.0382 µM (active); in [5], 38.8 µM (inactive); in assay [7], 16 µM (inactive). For the same molecule, the GI50 was 8.55 µM (inactive) in [8]; > 100 µM (inactive) in assay [9]; 32.6 µM (inactive) in [10]; 42.6 µM (inactive) in [11]; 39 µM (inactive) in assay [12]; 27.9 µM (inactive) in assay [13]. The GI50 was 35.2 µM (inactive) in assay [14]; > 100 µM (inactive) in [15]; 50.4 µM (inactive) in assay [16]; 26.8 µM (inactive) in [17]; 31.3 µM (inactive) in [19].

Take `COc1ccc(N2C(=O)C3c4[nH]c5ccc(C)cc5c4C4CCC(C(C)(C)C)CC4C3C2=O)cc1` (stereo not drawn): the GI50 in assay [1] is 10.3 µM (inactive); in assay [2], 4.84 µM (inactive); in assay [3], 41 µM (inactive); in assay [4], 13.4 µM (inactive); in [5], 24.9 µM (inactive); in assay [6], 12.9 µM (inactive). The GI50 in assay [7] is 25.6 µM (inactive); in assay [8], 10 µM (inactive); in [10] it was 13 µM (inactive); in [11], 5.48 µM (inactive); in [12] it was 11.5 µM (inactive); in [13] it was 48.4 µM (inactive). For the same molecule, the GI50 in assay [14] is 22.6 µM (inactive); in [15] it was 2.96 µM (inactive); in [16] it was 17.1 µM (inactive); in assay [17], 23.8 µM (inactive); in [18], 7.93 µM (inactive); in assay [19], 17.2 µM (inactive).

For `Cc1cc(Br)cc(C)c1NC(=O)C(=O)CC(=O)c1sc(-n2nc(-c3ccccc3)cc2-c2ccccc2)nc1C`, the GI50 in [1], in assay [2], in [3], in assay [20], in assay [4] and in assay [6] was > 100 µM (inactive) in each case. Also, the GI50 in assay [7], in [8], in [9], in assay [10], in assay [11] and in [12] was > 100 µM (inactive) in each case. The GI50 in [13] was > 100 µM (inactive); in assay [14] it was > 100 µM (inactive); in assay [15], 49.9 µM (inactive); in assay [16], > 100 µM (inactive); in [17], > 100 µM (inactive); in assay [18] it was > 100 µM (inactive). Further, in assay [19], the GI50 is > 100 µM (inactive).

For `CCc1cccc(C)c1NC(=S)NC(=O)c1ccccc1C(=O)NC(=S)Nc1c(C)cccc1CC`, the GI50 in assay [1] is 56.2 µM (inactive); in assay [2], 36.3 µM (inactive); in assay [3] it was 90.6 µM (inactive); in assay [20], 19.1 µM (inactive); in [4] it was 38.9 µM (inactive); in assay [6], 53.7 µM (inactive). Moreover, the GI50 in assay [7] was 18.2 µM (inactive); in assay [8] it was 23.8 µM (inactive); in assay [9], > 100 µM (inactive); in [10], > 100 µM (inactive); in assay [11], 57.7 µM (inactive); in [12], > 100 µM (inactive). The GI50 is > 100 µM (inactive) in assay [13]; > 100 µM (inactive) in [14]; > 100 µM (inactive) in assay [15]; > 100 µM (inactive) in assay [16]; > 100 µM (inactive) in assay [17]; 37.7 µM (inactive) in assay [18]. Besides, in assay [19], the GI50 is > 100 µM (inactive).

Regarding `COc1ccc(NCc2cc(OC)cc(OC)c2)cc1`, the GI50 was 9.75 µM (inactive) in assay [1]; 25.2 µM (inactive) in [2]; 12.1 µM (inactive) in assay [3]; 78.5 µM (inactive) in assay [20]; 3.88 µM (inactive) in assay [4]; 17.1 µM (inactive) in assay [6]. In addition, the GI50 was 7.62 µM (inactive) in [7]; 11.9 µM (inactive) in assay [8]; 24.7 µM (inactive) in assay [9]; 26 µM (inactive) in [10]; 20.8 µM (inactive) in assay [11]; 24.5 µM (inactive) in assay [12]. The GI50 in assay [13] was 36.1 µM (inactive); in assay [14], > 68.4 µM (inactive); in assay [15], 23.4 µM (inactive); in assay [16], 50.7 µM (inactive); in assay [17], 40.6 µM (inactive); in assay [18], 9.48 µM (inactive). Besides, the GI50 in assay [19] is 35.9 µM (inactive).

On to `Cc1cccc2cc3cccc(C(=O)NCCN(C)C)c3nc12`, for which the GI50 in assay [1] was 0.027 µM (active); in assay [2], 0.0575 µM (active); in [3], 0.181 µM (active); in assay [20] it was 0.185 µM (active); in assay [4], 0.203 µM (active); in assay [6], < 0.01 µM (active). In addition, the GI50 is 0.151 µM (active) in [7]; 0.366 µM (active) in assay [8]; 0.292 µM (active) in [9]; 0.296 µM (active) in assay [10]; 0.131 µM (active) in assay [11]; 0.519 µM (active) in [12]. Also, the GI50 is 0.063 µM (active) in assay [13]; 0.191 µM (active) in [14]; 0.235 µM (active) in [15]; 0.317 µM (active) in [16]; 0.245 µM (active) in [17]; 0.129 µM (active) in assay [18]. For the same molecule, the GI50 in [19] was 0.083 µM (active).

On to `C#CCN(N=O)C(=O)NCCCCC(NC(C)=O)C(=O)NCc1ccccc1` (stereo not drawn), for which the GI50 in assay [1] was > 100 µM (inactive); in [2], 28.4 µM (inactive); in [3], > 100 µM (inactive); in assay [20] it was > 100 µM (inactive); in assay [4] it was 54.1 µM (inactive); in assay [6], 28.4 µM (inactive). The GI50 in [7] is 25.5 µM (inactive); in assay [8] it was > 100 µM (inactive); in assay [9], > 100 µM (inactive); in [10], > 100 µM (inactive); in [11] it was > 100 µM (inactive); in [12] it was > 100 µM (inactive). The GI50 in assay [13], in [14], in assay [15], in [16], in assay [17] and in [18] was > 100 µM (inactive) each time. For the same molecule, in assay [19], the GI50 is > 100 µM (inactive).
